Like-named read-outs stand apart in the source and are kept apart here.
Assays:
[1] = human, in vivo
[2] = clinical; settings: human, in vivo, Urine Results
[3] = clinical; settings: human, in vivo
[4] = clinical; settings: in vivo
[5] = human, Average of Urine Samples
[6] = human, Subject A, Urine Results
[7] = human, Subject B, Urine Results

O=C1O[C@H]([C@@H](O)CO)C(O)=C1O [Ascorbic Acid]
course of urine levels relative to dosing [1]: did not differ significantly from baseline levels
concentration at 7 day ([2]; Subject A): 2920 ng/mL
concentration at 1 day ([2]; Subject C): 1870 ng/mL
concentration at 2 day ([2]; Subject C): 2490 ng/mL
concentration at 3 day ([2]; Subject C): 4540 ng/mL
concentration at 4 day ([2]; Subject C): 2520 ng/mL
concentration at 5 day ([2]; Subject C): 5290 ng/mL
concentration at 6 day ([2]; Subject C): 1040 ng/mL
concentration at 7 day ([2]; Subject C): 1840 ng/mL
concentration at 8 day ([2]; Subject C): 1610 ng/mL
concentration at 3 day ([2]; Subject D): 4900 ng/mL
concentration at 4 day ([2]; Subject D): 4930 ng/mL
concentration at 5 day ([2]; Subject D): 5020 ng/mL
concentration at 6 day ([2]; Subject D): 4400 ng/mL
concentration at 8 day ([2]; Subject D): 4320 ng/mL
concentration at 1 day [3]: 30.7 ng/mL
concentration at 2 day [3]: 33.6 ng/mL
concentration at 3 day [3]: 32.8 ng/mL
concentration at 4 day [3]: 33.3 ng/mL
concentration at 5 day [3]: 23.8 ng/mL
concentration at 6 day [3]: 36.2 ng/mL
concentration at 7 day [3]: 36.8 ng/mL
concentration at 8 day [3]: 27 ng/mL
Subject C, Urine Results ([4]; human, 1 day): 1290 ng/m
Subject D, Urine Results ([4]; human, 1 day): 4167 ng/m
Subject C, Urine Results ([4]; human, 2 day): 2106 ng/m
Subject D, Urine Results ([4]; human, 2 day): 2789 ng/m
Subject C, Urine Results ([4]; human, 3 day): 1947 ng/m
Subject D, Urine Results ([4]; human, 3 day): 3626 ng/m
Subject C, Urine Results ([4]; human, 4 day): 1892 ng/m
Subject D, Urine Results ([4]; human, 4 day): 3426 ng/m
Subject C, Urine Results ([4]; human, 5 day): 2503 ng/m
Subject D, Urine Results ([4]; human, 5 day): 2268 ng/m
Subject C, Urine Results ([4]; human, 6 day): 1812 ng/m
Subject D, Urine Results ([4]; human, 6 day): 3024 ng/m
Subject C, Urine Results ([4]; human, 7 day): 1751 ng/m
Subject D, Urine Results ([4]; human, 7 day): 3908 ng/m
Subject C, Urine Results ([4]; human, 8 day): 2020 ng/m
Subject D, Urine Results ([4]; human, 8 day): 2894 ng/m
concentration at 1 day [4, 5]: 1960 ng/mL
concentration at 2 day [4, 5]: 2100 ng/mL
concentration at 3 day [4, 5]: 2260 ng/mL
concentration at 4 day [4, 5]: 2660 ng/mL
concentration at 5 day [4, 5]: 2030 ng/mL
concentration at 6 day [4, 5]: 1960 ng/mL
concentration at 7 day [4, 5]: 2560 ng/mL
concentration at 8 day [4, 5]: 2100 ng/mL
concentration at 7 day [4, 6]: 2800 ng/mL
course of urine levels relative to dosing [4]: did not differ significantly from baseline levels

CN(C)CCOC(c1ccccc1)c1ccccc1 [Diphenhydramine]
course of urine levels relative to dosing [1]: zero before dosing, peaked the day after dosing and slowly decreased over time
concentration at 1 day ([2]; Subject A): 0 ng/mL
concentration at 2 day ([2]; Subject A): 0 ng/mL
concentration at 3 day ([2]; Subject A): 0 ng/mL
concentration at 4 day ([2]; Subject A): 0 ng/mL
concentration at 5 day ([2]; Subject A): 0 ng/mL
concentration at 6 day ([2]; Subject A): 481000 ng/mL
concentration at 1 day ([2]; Subject B): 0 ng/mL
concentration at 2 day ([2]; Subject B): 0 ng/mL
concentration at 3 day ([2]; Subject B): 0 ng/mL
concentration at 4 day ([2]; Subject B): 0 ng/mL
concentration at 5 day ([2]; Subject B): 0 ng/mL
concentration at 6 day ([2]; Subject B): 0 ng/mL
concentration at 7 day ([2]; Subject B): 0 ng/mL
concentration at 8 day ([2]; Subject B): 0 ng/mL
concentration at 1 day ([2]; Subject C): 0 ng/mL
concentration at 2 day ([2]; Subject C): 0 ng/mL
concentration at 3 day ([2]; Subject C): 0 ng/mL
concentration at 4 day ([2]; Subject C): 0 ng/mL
concentration at 5 day ([2]; Subject C): 0 ng/mL
concentration at 6 day ([2]; Subject C): 151000 ng/mL
concentration at 7 day ([2]; Subject C): 214000 ng/mL
concentration at 8 day ([2]; Subject C): 8840 ng/mL
concentration at 3 day ([2]; Subject D): 0 ng/mL
concentration at 4 day ([2]; Subject D): 0 ng/mL
concentration at 5 day ([2]; Subject D): 0 ng/mL
concentration at 6 day ([2]; Subject D): 684000 ng/mL
concentration at 8 day ([2]; Subject D): 75300 ng/mL
concentration at 1 day [3]: 0 ng/mL
concentration at 2 day [3]: 0 ng/mL
concentration at 3 day [3]: 0 ng/mL
concentration at 4 day [3]: 0 ng/mL
concentration at 5 day [3]: 0 ng/mL
concentration at 6 day [3]: 227 ng/mL
concentration at 7 day [3]: 0 ng/mL
concentration at 8 day [3]: 0 ng/mL
detection of marker in saliva across subjects [3]: not detectable in 2 of the 4 subjects
Subject C, Urine Results ([4]; human, 1 day): 0 ng/m
Subject D, Urine Results ([4]; human, 1 day): 0 ng/m
Subject C, Urine Results ([4]; human, 2 day): 0 ng/m
Subject D, Urine Results ([4]; human, 2 day): 0 ng/m
Subject C, Urine Results ([4]; human, 3 day): 0 ng/m
Subject D, Urine Results ([4]; human, 3 day): 0 ng/m
Subject C, Urine Results ([4]; human, 4 day): 0 ng/m
Subject D, Urine Results ([4]; human, 4 day): 0 ng/m
Subject C, Urine Results ([4]; human, 5 day): 0 ng/m
Subject D, Urine Results ([4]; human, 5 day): 0 ng/m
Subject A, Urine Results ([4]; human, 6 day): 2020000 ng/mL
Subject C, Urine Results ([4]; human, 6 day): 618000 ng/m
Subject D, Urine Results ([4]; human, 6 day): 585000 ng/m
Subject C, Urine Results ([4]; human, 7 day): 144000 ng/m
Subject D, Urine Results ([4]; human, 7 day): 185000 ng/m
Subject C, Urine Results ([4]; human, 8 day): 125000 ng/m
Subject D, Urine Results ([4]; human, 8 day): 54100 ng/m
concentration at 1 day [4, 5]: 0 ng/mL
concentration at 2 day [4, 5]: 0 ng/mL
concentration at 3 day [4, 5]: 0 ng/mL
concentration at 4 day [4, 5]: 0 ng/mL
concentration at 5 day [4, 5]: 0 ng/mL
concentration at 6 day [4, 5]: 972000 ng/mL
concentration at 7 day [4, 5]: 163000 ng/mL
concentration at 8 day [4, 5]: 88700 ng/mL
concentration at 1 day [4, 6]: 0 ng/mL
concentration at 2 day [4, 6]: 0 ng/mL
concentration at 3 day [4, 6]: 0 ng/mL
concentration at 4 day [4, 6]: 0 ng/mL
concentration at 5 day [4, 6]: 0 ng/mL
concentration at 1 day [4, 7]: 0 ng/mL
concentration at 2 day [4, 7]: 0 ng/mL
concentration at 3 day [4, 7]: 0 ng/mL
concentration at 4 day [4, 7]: 0 ng/mL
concentration at 5 day [4, 7]: 0 ng/mL
concentration at 6 day [4, 7]: 663000 ng/mL
concentration at 7 day [4, 7]: 151000 ng/mL
concentration at 8 day [4, 7]: 120000 ng/mL
course of urine levels relative to dosing [4]: zero before dosing, peaked the day after dosing and slowly decreased over time

NC(N)=Nc1nc(CSCCC(N)=NS(N)(=O)=O)cs1 [Famotidine]
course of urine levels relative to dosing [1]: zero before dosing, peaked the day after dosing and slowly decreased over time
concentration at 1 day ([2]; Subject A): 0 ng/mL
concentration at 2 day ([2]; Subject A): 0 ng/mL
concentration at 3 day ([2]; Subject A): 0 ng/mL
concentration at 4 day ([2]; Subject A): 0 ng/mL
concentration at 1 day ([2]; Subject B): 0 ng/mL
concentration at 2 day ([2]; Subject B): 0 ng/mL
concentration at 3 day ([2]; Subject B): 0 ng/mL
concentration at 4 day ([2]; Subject B): 0 ng/mL
concentration at 1 day ([2]; Subject C): 0 ng/mL
concentration at 2 day ([2]; Subject C): 0 ng/mL
concentration at 3 day ([2]; Subject C): 0 ng/mL
concentration at 4 day ([2]; Subject C): 0 ng/mL
concentration at 5 day ([2]; Subject C): 3830 ng/mL
concentration at 6 day ([2]; Subject C): 429 ng/mL
concentration at 7 day ([2]; Subject C): 390 ng/mL
concentration at 8 day ([2]; Subject C): 139 ng/mL
concentration at 3 day ([2]; Subject D): 0 ng/mL
concentration at 4 day ([2]; Subject D): 0 ng/mL
concentration at 5 day ([2]; Subject D): 5050 ng/mL
concentration at 6 day ([2]; Subject D): 1670 ng/mL
concentration at 8 day ([2]; Subject D): 27.8 ng/mL
concentration at 1 day [3]: 0 ng/mL
concentration at 2 day [3]: 0 ng/mL
concentration at 3 day [3]: 0 ng/mL
concentration at 4 day [3]: 0 ng/mL
concentration at 5 day [3]: 5.71 ng/mL
concentration at 6 day [3]: 0.34 ng/mL
concentration at 7 day [3]: 0 ng/mL
concentration at 8 day [3]: 0 ng/mL
Subject C, Urine Results ([4]; human, 1 day): 0 ng/m
Subject D, Urine Results ([4]; human, 1 day): 0 ng/m
Subject C, Urine Results ([4]; human, 2 day): 0 ng/m
Subject D, Urine Results ([4]; human, 2 day): 0 ng/m
Subject C, Urine Results ([4]; human, 3 day): 0 ng/m
Subject D, Urine Results ([4]; human, 3 day): 0 ng/m
Subject C, Urine Results ([4]; human, 4 day): 0 ng/m
Subject D, Urine Results ([4]; human, 4 day): 0 ng/m
Subject C, Urine Results ([4]; human, 5 day): 968 ng/m
Subject D, Urine Results ([4]; human, 5 day): 3820 ng/m
Subject C, Urine Results ([4]; human, 6 day): 165 ng/m
Subject D, Urine Results ([4]; human, 6 day): 260 ng/m
Subject C, Urine Results ([4]; human, 7 day): 122 ng/m
Subject D, Urine Results ([4]; human, 7 day): 37.3 ng/m
Subject C, Urine Results ([4]; human, 8 day): 78.9 ng/m
Subject D, Urine Results ([4]; human, 8 day): 19.4 ng/m
concentration at 1 day [4, 5]: 0 ng/mL
concentration at 2 day [4, 5]: 0 ng/mL
concentration at 3 day [4, 5]: 0 ng/mL
concentration at 4 day [4, 5]: 0 ng/mL
concentration at 5 day [4, 5]: 1560 ng/mL
concentration at 6 day [4, 5]: 203 ng/mL
concentration at 7 day [4, 5]: 64.5 ng/mL
concentration at 8 day [4, 5]: 43.2 ng/mL
concentration at 1 day [4, 6]: 0 ng/mL
concentration at 2 day [4, 6]: 0 ng/mL
concentration at 3 day [4, 6]: 0 ng/mL
concentration at 4 day [4, 6]: 0 ng/mL
concentration at 1 day [4, 7]: 0 ng/mL
concentration at 2 day [4, 7]: 0 ng/mL
concentration at 3 day [4, 7]: 0 ng/mL
concentration at 4 day [4, 7]: 0 ng/mL
course of urine levels relative to dosing [4]: zero before dosing, peaked the day after dosing and slowly decreased over time
